# Reference: article PMC6713104, “New peptide derived antimalaria and antimicrobial agents bearing sulphonamide moiety” (Journal of Enzyme Inhibition and Medicinal Chemistry, 2019)
# Where two headings read alike, the source gives them in different places. Non-standard residues stand in square brackets, D forms with d. Residues, ends and D or L forms follow the SMILES beside them. ξ: configuration not given here. *: point of attachment. Tos = Cc1ccc(S(=O)(=O)*)cc1; βNA = c1ccc2cc(N*)ccc2c1; NHPh = c1ccc(N*)cc1; ξA = CC(N)C(=O)O
# Legend:
# [1] = Haematological analysis; type: in vivo, mice
# Text: (§1) Twenty-four hours before the injecting the compounds, the blood sample of five mice was taken and it was also taken after the last day of treatment, the animals were sacrificed by cervical dislocation and the blood samples were collected by heart puncture. The blood samples for haematological parameters (red blood cell (RBC) count, white blood cell (WBC) count, packed cell volume (PCV), and hemoglobin (HGB)) were collected into EDTA bottles and analyzed using an automated machine (Automated CBC Analyzer: Sysmex KX-21).
# The blood samples for haematological parameters (red blood cell (RBC) count, white blood cell (WBC) count, packed cell volume (PCV), and haemoglobin (HGB)) were collected into EDTA bottles and analyzed using an automated machine (Automated CBC Analyzer: Sysmex KX-21) (Table 8). From the analysis, even though there is a decrease in the value of RBC, PCV and HB, it is observed that there is no significant changes in the parameters that were analyzed for the control and the test compounds.
# [2] = test system: B. subtilis; assay: Antimicrobial MIC, agar cup diffusion; type: cell-based; settings: for MIC: Bacillus subtilis, B. subtilis, read-out: MIC (minimum inhibitory concentration)
# [3] = test system: C. albicans; assay: Antimicrobial MIC, agar cup diffusion; type: cell-based; settings: Candida albicans, read-out: MIC (minimum inhibitory concentration)
# [4] = Renal or kidney function test; type: in vivo; settings: mice, 10 mg/kg
# Text: as §1, with “KX-21). Kidney function tests carried out with the blood of the rats fed with the sulfonamide derivatives were, creatinine and albunim. The method reported by Kaplan and Tengv[33] was used in the determination of creatinine.” for “KX-21).”
# [5] = test system: K. pneumoniae; assay: Antimicrobial MIC, agar cup diffusion; type: cell-based; settings: Klebsiella pneumoniae, read-out: MIC (minimum inhibitory concentration)
# [6] = test system: P. falciparum strain W2; assay: In vitro antimalarial assay; type: cell-based; settings: Plasmodium falciparum, W2; P. falciparum, 48 h, >99% of parasites inhibited from developing to schizonts
# [7] = test system: Plasmodium berghei infection in mice; assay: In vivo antimalaria test; settings: P. berghei infected mice; for inhibition in vivo at 100 mg/kg / inhibition in vivo at 200 mg/kg: Plasmodium berghei, oral
# Experimental: Experimental Design and Treatment of Mice. Methods of Peter et al.[30] and Kalra et al.[31] for antiplasmodial assay against Plasmodium berghei infection in mice with some modifications were employed. About eighty infected mice were randomly divided into five groups, each having […] mice. The inoculum was prepared from a donor mouse with rising parasitemia of 60.42%. After 7 days of infection, animals begin to receive treatment (100 and 200 mg/kg b wt.) of the synthesized compounds (7a–7n) for 12 days with constant check of the percentage of parasitemia after a 4-day interval. Artemisinin (100 and 200 mg/kg body weight.) was given to the other mice in group three as positive control, group four was not treated and group five was not infected. All the compounds and the drugs were given orally by using a standard intragastric tube. For all parasitemia determination, blood samples were collected from tail snip of each mouse and thin smears prepared and stained with 10% Giemsa solution. The uniform fields of each stained slide (for each mouse) were examined under microscope with an oil immersion objective of 100X magnification power and average percent of parasitemia was determined.
# To determine the in vivo activity, the compounds were tested against P. berghei NK(65 Strain) infection mice., the animals were obtained from Nigeria institute for Trypanosoma and onchocercarioses Research (NTIR) Vom, Plateau State Nigeria. The permission and approval for the use of animals in this experiment were granted by the Animal Ethics Committee, Federal College of Vetrenary Medical Laboratory, Vom, Plateau State. Method of Peter et al.[30], for antiplasmodial assay against P. berghei in mice with some modification were employed. Artemisimin was used as treated control of the experiments. The percentage inhibition of parasite multiplication was calculated comparing the treated group with untreated group by means of the following formula[39] [(A − B)/A] × 100; where A = parasitaemia in the untreated group and B = parasitemia in the test group. […] Most of the compounds were active against P. berghei after 7 days post-infection by reducing the parasiteamia by at least 40% when in a dose of 100 mg/kg (Table 5). The inhibition of parasitaemia increased on 12th day post infection for almost all the compounds. […] However in consideration of the compounds ability to inhibit parasitaemia to the control drug. […] These compounds should be considered for further studies because of its promising activities.
# [8] = Liver function tests; type: in vivo; settings: mice, 10 mg/kg
# Text: as §1, with “KX-21). The liver function tests carried out with the blood of the rats fed with the sulfonamide derivatives were aspartate aminotransperase (AST), alanine transaminase (ALT) and alkaline phosphatase (ALP). Standard laboratory procedure according to Reitman and Franke[32] was used for the determination of parameters.” for “KX-21).”
# [9] = test system: S. typhi; assay: Antimicrobial MIC, agar cup diffusion; type: cell-based; settings: Salmonella enterica, read-out: MIC (minimum inhibitory concentration)
# [10] = test system: E. coli; assay: Antimicrobial MIC, agar cup diffusion; type: cell-based; settings: Escherichia coli, read-out: MIC (minimum inhibitory concentration)
# [11] = test system: A. niger; assay: Antimicrobial MIC, agar cup diffusion; type: cell-based; settings: Aspergillus niger, read-out: MIC (minimum inhibitory concentration)
# [12] = 168 h, read-out: % inhibition 7 days post-treatment (100 mg/kg), day 7
# [13] = 168 h, read-out: % inhibition 7 days post-treatment (200 mg/kg), day 7
# [14] = 288 h, read-out: % inhibition 12 days post-treatment (100 mg/kg), day 12
# [15] = 288 h, read-out: % inhibition 12 days post-treatment (200 mg/kg), day 12
structure (smiles),measurement,setting,value
"Cc1ccc(S(=O)(=O)NC(C)C(=O)NCC(=O)Nc2cccc(F)c2)cc1 (stereo not drawn) [Compound 7j, N-(2-((3-fluorophenyl)amino)-2-oxoethyl)-2–(4-methylphenylsulfonamido)propanamide]",HB,[1]; After treatment,10.0 g/dL
same,PCV,[1]; After treatment,34%
same,RBC,[1]; After treatment,6.5 × 10^6 mm^3
same,WBC,[1]; After treatment,9.1 × 10^3 mm^3
same,HB,[1]; Before treatment,13.5 g/dL
same,PCV,[1]; Before treatment,39%
same,RBC,[1]; Before treatment,7.1 × 10^6 mm^3
same,WBC,[1]; Before treatment,8.0 × 10^3 mm^3
same,MIC,[2],245 µg/mL
same,MIC,[3],371 µg/mL
same,Albumin,[4]; After,4.0 g/dL
same,Creatinine,[4]; After,0.3 mg/dL
same,Albumin,[4]; Before,3.9 g/dL
same,Creatinine,[4]; Before,0.4 mg/dL
same,MIC,[5],83 µg/mL
same,MIC,[6],0.88 µM
same,ability to inhibit parasitaemia compared to the control drug,[7]; in words,almost the same or better activity compared to the artemisinin
same,inhibition in vivo at 100 mg/kg,[7]; [12],77.9%
same,inhibition in vivo at 200 mg/kg,[7]; [13],77.4%
same,inhibition in vivo at 100 mg/kg,[7]; [14],82.7%
same,inhibition in vivo at 200 mg/kg,[7]; [15],73.5%
same,ALT,[8]; After,25.5 µ/L
same,AST,[8]; After,60.0 µ/L
same,Bilirubin,[8]; After,0.2 mg/dL
same,T.P.,[8]; After,5.8 g/dL
same,ALT,[8]; Before,26.3 µ/L
same,AST,[8]; Before,65.0 µ/L
same,Bilirubin,[8]; Before,0.4 mg/dL
same,T.P.,[8]; Before,6.0 g/dL
same,MIC,[9],129 µg/mL
same,MIC,[10],275 µg/mL
"Cc1ccc(S(=O)(=O)NC(C)C(=O)NCC(=O)Nc2ccc(F)cc2)cc1 (stereo not drawn) [Compound 7k, N-(2-((4-fluorophenyl)amino)-2-oxoethyl)-2–(4-methylphenylsulfonamido)propanamide]",MIC,[2],371 µg/mL
same,MIC,[3],63.1 µg/mL
same,MIC,[5],79 µg/mL
same,MIC,[6],0.53 µM
same,inhibition in vivo at 100 mg/kg,[7]; [12],40.4%
same,inhibition in vivo at 200 mg/kg,[7]; [13],54.9%
same,inhibition in vivo at 100 mg/kg,[7]; [14],44.3%
same,inhibition in vivo at 200 mg/kg,[7]; [15],56.4%
same,MIC,[9],3160 µg/mL
same,MIC,[11],316 µg/mL
same,MIC,[10],316 µg/mL
"Cc1ccc(S(=O)(=O)NC(C)C(=O)NCC(=O)Nc2ccccc2)cc1 (stereo not drawn) [Compound 7m, 2–(4-methylphenylsulfonamido)-N-(2-oxo-2-(phenylamino)ethyl)propanamide] (Tos-[ξA]-Gly-NHPh)",MIC,[2],129 µg/mL
same,activity against Bacillus compared with ciprofloxacin,[2]; in words,greater activity against Bacillus than ciprofloxacin
same,MIC,[3],7940 µg/mL
same,MIC,[5],138 µg/mL
same,MIC,[6],1.87 µM
same,inhibition in vivo at 100 mg/kg,[7]; [12],33.5%
same,inhibition in vivo at 200 mg/kg,[7]; [13],71.4%
same,inhibition in vivo at 100 mg/kg,[7]; [14],29.3%
same,inhibition in vivo at 200 mg/kg,[7]; [15],74%
same,MIC,[9],57 µg/mL
same,MIC,[11],56 µg/mL
same,MIC,[10],123 µg/mL
"Cc1ccc(S(=O)(=O)NC(C)C(=O)NCC(=O)Nc2ccc3ccccc3c2)cc1 (stereo not drawn) [Compound 7n, 2–(4-methylphenylsulfonamido)-N-(2-(naphthalene-2-ylamino)-2-oxoethyl)propanamide] (Tos-[ξA]-Gly-βNA)",MIC,[3],155 µg/mL
same,MIC,[6],2.34 µM
same,inhibition in vivo at 100 mg/kg,[7]; [12],47.8%
same,inhibition in vivo at 200 mg/kg,[7]; [13],63.8%
same,inhibition in vivo at 100 mg/kg,[7]; [14],49.1%
same,inhibition in vivo at 200 mg/kg,[7]; [15],71.7%
same,MIC,[9],617 µg/mL
same,MIC,[11],39 µg/mL
same,MIC,[10],123 µg/mL
same,melting point,,174 to 176 °C
"OC(Cn1cncn1)(Cn1cncn1)c1ccc(F)cc1F [FLU, Fluconazole, reference compound]",MIC,[3],21.7 µg/mL
same,MIC,[11],47.1 µg/mL
